Source: PubChem BioAssay (NCI)
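Protocol summary: plate cells (96-well), add compound at 5 concentrations, incubate 48 h, interpolate endpoints linearly. GI50 = concentration required for 50% inhibition of growth. TGI marks complete inhibition of growth.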

Tests used:
Test in all cases: NCI-60 cell line screen, 48 h
UACC-62 melanoma = system: UACC-62 melanoma
NCI/ADR-RES ovarian = system: NCI/ADR-RES ovarian
UACC-257 melanoma = system: UACC-257 melanoma
K-562 leukemia = system: K-562 leukemia
SK-OV-3 ovarian = system: SK-OV-3 ovarian
MDA-MB-231 breast = system: MDA-MB-231 breast
NCI-H226 lung = system: NCI-H226 lung
KM12 colon = system: KM12 colon
NCI-H460 lung = system: NCI-H460 lung
OVCAR-4 ovarian = system: OVCAR-4 ovarian
OVCAR-3 ovarian = system: OVCAR-3 ovarian
DU-145 prostate = system: DU-145 prostate
SK-MEL-2 melanoma = system: SK-MEL-2 melanoma
HCT-116 colon = system: HCT-116 colon
MDA-MB-435 = system: MDA-MB-435
COLO 205 colon = system: COLO 205 colon
SF-295 CNS = system: SF-295 CNS
SN12C renal = system: SN12C renal
OVCAR-8 ovarian = system: OVCAR-8 ovarian
U251 CNS = system: U251 CNS
LOX IMVI melanoma = system: LOX IMVI melanoma
SF-539 CNS = system: SF-539 CNS
CCRF-CEM leukemia = system: CCRF-CEM leukemia
RXF 393 renal = system: RXF 393 renal
HOP-62 NSCLC = system: HOP-62 NSCLC
NCI-H522 lung = system: NCI-H522 lung
BT-549 breast = system: BT-549 breast
ACHN renal = system: ACHN renal
HOP-92 NSCLC = system: HOP-92 NSCLC
UO-31 renal = system: UO-31 renal
SK-MEL-28 melanoma = system: SK-MEL-28 melanoma
NCI-H23 lung = system: NCI-H23 lung
EKVX NSCLC = system: EKVX NSCLC
RPMI-8226 leukemia = system: RPMI-8226 leukemia
CAKI-1 renal = system: CAKI-1 renal
TK-10 renal = system: TK-10 renal
SNB-19 CNS = system: SNB-19 CNS
SF-268 CNS = system: SF-268 CNS
HCC-2998 colon = system: HCC-2998 colon
A549 NSCLC = system: A549 NSCLC
HS 578T breast = system: HS 578T breast
SNB-75 CNS = system: SNB-75 CNS
A498 renal = system: A498 renal
SR leukemia = system: SR leukemia
HCT-15 colon = system: HCT-15 colon
HT29 colon = system: HT29 colon
SW-620 colon = system: SW-620 colon
MCF7 breast = system: MCF7 breast
SK-MEL-5 melanoma = system: SK-MEL-5 melanoma
M14 melanoma = system: M14 melanoma
MALME-3M melanoma = system: MALME-3M melanoma
MOLT-4 leukemia = system: MOLT-4 leukemia
PC-3 prostate = system: PC-3 prostate
HL-60(TB) leukemia = system: HL-60(TB) leukemia
IGROV1 ovarian = system: IGROV1 ovarian
T-47D breast = system: T-47D breast
OVCAR-5 ovarian = system: OVCAR-5 ovarian
786-0 renal = system: 786-0 renal

Cc1ccc(-c2nc3nc(-c4ccc(Br)cc4)nc(N4CCCNCC4)c3o2)cc1
GI50 (UACC-62 melanoma): 17 µM | TGI (UACC-62 melanoma): 31.9 µM | GI50 (NCI/ADR-RES ovarian): 2.2 µM | TGI (NCI/ADR-RES ovarian): 4.58 µM | GI50 (UACC-257 melanoma): 18.2 µM | TGI (UACC-257 melanoma): 39.7 µM | GI50 (K-562 leukemia): 2.31 µM | TGI (K-562 leukemia): 4.98 µM | GI50 (SK-OV-3 ovarian): 17.5 µM | TGI (SK-OV-3 ovarian): 33.4 µM | GI50 (MDA-MB-231 breast): 1.93 µM | TGI (MDA-MB-231 breast): 4.05 µM | GI50 (NCI-H226 lung): 17 µM | TGI (NCI-H226 lung): 38.9 µM | GI50 (KM12 colon): 1.93 µM | TGI (KM12 colon): 3.82 µM | GI50 (NCI-H460 lung): 1.9 µM | TGI (NCI-H460 lung): 3.61 µM | GI50 (OVCAR-4 ovarian): 7.2 µM | TGI (OVCAR-4 ovarian): 21 µM | GI50 (OVCAR-3 ovarian): 1.84 µM | TGI (OVCAR-3 ovarian): 3.36 µM | GI50 (DU-145 prostate): 1.92 µM | TGI (DU-145 prostate): 3.55 µM | GI50 (SK-MEL-2 melanoma): 18.5 µM | TGI (SK-MEL-2 melanoma): 36.3 µM | GI50 (HCT-116 colon): 1.82 µM | TGI (HCT-116 colon): 3.36 µM | GI50 (MDA-MB-435): 1.88 µM | TGI (MDA-MB-435): 3.74 µM | GI50 (COLO 205 colon): 5.56 µM | TGI (COLO 205 colon): 20.2 µM | GI50 (SF-295 CNS): 17.9 µM | TGI (SF-295 CNS): 33 µM | GI50 (SN12C renal): 10.5 µM | TGI (SN12C renal): 23.7 µM | GI50 (OVCAR-8 ovarian): 2.28 µM | TGI (OVCAR-8 ovarian): 5.28 µM | GI50 (U251 CNS): 1.77 µM | TGI (U251 CNS): 3.45 µM | GI50 (LOX IMVI melanoma): 1.76 µM | TGI (LOX IMVI melanoma): 3.34 µM | GI50 (SF-539 CNS): 3.27 µM | TGI (SF-539 CNS): 11.4 µM | GI50 (CCRF-CEM leukemia): 2.35 µM | TGI (CCRF-CEM leukemia): 5.57 µM | GI50 (RXF 393 renal): 13.7 µM | TGI (RXF 393 renal): 27.5 µM | GI50 (HOP-62 NSCLC): 15.8 µM | TGI (HOP-62 NSCLC): 35.1 µM | GI50 (NCI-H522 lung): 1.86 µM | TGI (NCI-H522 lung): 4.5 µM | GI50 (BT-549 breast): 16 µM | TGI (BT-549 breast): 34.6 µM | GI50 (ACHN renal): 1.91 µM | TGI (ACHN renal): 3.59 µM | GI50 (HOP-92 NSCLC): 12.7 µM | TGI (HOP-92 NSCLC): 29.5 µM | GI50 (UO-31 renal): 2.12 µM | TGI (UO-31 renal): 7.04 µM | GI50 (SK-MEL-28 melanoma): 17.4 µM | TGI (SK-MEL-28 melanoma): 31.8 µM | GI50 (NCI-H23 lung): 17.1 µM | TGI (NCI-H23 lung): 34.9 µM | GI50 (EKVX NSCLC): 13.8 µM | TGI (EKVX NSCLC): 28.4 µM | GI50 (RPMI-8226 leukemia): 2.58 µM | TGI (RPMI-8226 leukemia): 6.63 µM | GI50 (CAKI-1 renal): 1.58 µM | TGI (CAKI-1 renal): 2.92 µM | GI50 (TK-10 renal): 20 µM | TGI (TK-10 renal): 34.8 µM | GI50 (SNB-19 CNS): 14.1 µM | TGI (SNB-19 CNS): 27.6 µM | GI50 (SF-268 CNS): 3.63 µM | TGI (SF-268 CNS): 15.2 µM | GI50 (HCC-2998 colon): 15.4 µM | TGI (HCC-2998 colon): 30.2 µM | GI50 (A549 NSCLC): 1.96 µM | TGI (A549 NSCLC): 4.04 µM | GI50 (HS 578T breast): 17.2 µM | TGI (HS 578T breast): 37.1 µM | GI50 (SNB-75 CNS): 10.5 µM | TGI (SNB-75 CNS): 22.4 µM | GI50 (A498 renal): 13.9 µM | TGI (A498 renal): 27.5 µM | GI50 (SR leukemia): 1.78 µM | TGI (SR leukemia): 4.4 µM | GI50 (HCT-15 colon): 1.72 µM | TGI (HCT-15 colon): 3.25 µM | GI50 (HT29 colon): 1.86 µM | TGI (HT29 colon): 3.54 µM | GI50 (SW-620 colon): 1.84 µM | TGI (SW-620 colon): 3.57 µM | GI50 (MCF7 breast): 1.78 µM | TGI (MCF7 breast): 3.51 µM | GI50 (SK-MEL-5 melanoma): 16.7 µM | TGI (SK-MEL-5 melanoma): 31.6 µM | GI50 (M14 melanoma): 4.64 µM | TGI (M14 melanoma): 18.1 µM | GI50 (MALME-3M melanoma): 15.4 µM | TGI (MALME-3M melanoma): 30.1 µM | GI50 (MOLT-4 leukemia): 2.08 µM | TGI (MOLT-4 leukemia): 4.14 µM | GI50 (PC-3 prostate): 2.48 µM | TGI (PC-3 prostate): 7.52 µM | GI50 (HL-60(TB) leukemia): 1.99 µM | TGI (HL-60(TB) leukemia): 4.07 µM | GI50 (IGROV1 ovarian): 1.84 µM | TGI (IGROV1 ovarian): 3.61 µM | GI50 (T-47D breast): 3.06 µM | TGI (T-47D breast): 13.9 µM | GI50 (OVCAR-5 ovarian): 16.3 µM | TGI (OVCAR-5 ovarian): 30 µM | GI50 (786-0 renal): 3.95 µM | TGI (786-0 renal): 16 µM
